From PubChem BioAssay (NCI)
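Briefly, cells in 96-well plates were exposed to five compound concentrations for 48 h, and endpoints were estimated by linear interpolation. TGI: total growth inhibition.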

Experiments:
Experiment in all cases: NCI tumour cell line growth inhibition, 48 h
[1] = system: SF-539 CNS
[2] = system: PC-3 prostate
[3] = system: MOLT-4 leukemia
[4] = system: M14 melanoma
[5] = system: K-562 leukemia
[6] = system: SK-MEL-28 melanoma
[7] = system: SN12C renal
[8] = system: OVCAR-8 ovarian
[9] = system: OVCAR-5 ovarian
[10] = system: CCRF-CEM leukemia
[11] = system: RPMI-8226 leukemia
[12] = system: CAKI-1 renal

| SMILES | TGI [1] | TGI [2] | TGI [3] | TGI [4] | TGI [5] | TGI [6] | TGI [7] | TGI [8] | TGI [9] | TGI [10] | TGI [11] | TGI [12] |
| --- | --- | --- | --- | --- | --- | --- | --- | --- | --- | --- | --- | --- |
| COC(=O)c1c(C(=O)OC)c2ccccn2c1-c1cc(OC)c(Br)c(=O)o1 | > 100 µM | > 100 µM | > 100 µM | > 100 µM | > 100 µM | > 100 µM | > 100 µM | > 100 µM | > 100 µM | > 100 µM | > 100 µM |  |
| CCOC(=O)NN(C(=O)OCC)C(C(=O)C1=CCCCC1)N(NC(=O)OCC)C(=O)OCC | > 100 µM | > 100 µM | > 100 µM | > 100 µM | > 100 µM | > 100 µM | > 100 µM | > 100 µM | > 100 µM |  | > 100 µM | > 100 µM |
| CC(C)C(=O)N1Cc2cc(Cl)cc(Cl)c2OC(=O)c2ccccc21 | 35.4 µM |  | 62 µM | 61.7 µM | > 100 µM | > 100 µM | > 100 µM | > 100 µM | 90 µM | 94.7 µM | 96.8 µM | 64 µM |
| COc1ccc(C2=NN(c3ccccc3)C[N+](c3ccc(C)cc3)=N2)cc1 |  |  | 88.5 µM |  | 53.9 µM | > 100 µM | > 100 µM | > 100 µM | 79.8 µM | 60.8 µM | 67.4 µM |  |
| COc1ccccc1Cc1ccc(C2C=CC3(CC(=O)C=C3C)C(=O)C2)o1 (stereo not given) | 42.9 µM | 38.3 µM | 34.1 µM | > 100 µM | 50.1 µM | > 100 µM | 58.5 µM | 37.1 µM | > 100 µM |  | 39.2 µM | > 100 µM |
| COC(=O)c1cc(C(=O)OC)c(CC(=O)C(=O)NC2C3CC4CC(C3)CC2C4)nc1CC(=O)C(=O)NC1C2CC3CC(C2)CC1C3 (stereo not given) | > 100 µM |  | > 100 µM | > 100 µM | > 100 µM | > 100 µM | > 100 µM | > 100 µM | > 100 µM | > 100 µM | > 100 µM | > 100 µM |
| COc1cc2c(c(OC)c1OC)-c1ccc(SC)c(=O)cc1C(CC(=O)Oc1cccc([N+](=O)[O-])c1)C2 (stereo not given) | 1.32 µM |  | > 100 µM | > 100 µM | > 100 µM | > 100 µM | > 76.9 µM | 10.4 µM | > 100 µM | > 57.2 µM | > 54.8 µM | > 100 µM |
| CC(CCC[C@H](C)CO)[C@H]1[C@@H](O)C(O)C2[C@@H]3C[C@@H](O)C4(O)C[C@@H](O)CC[C@]4(C)C3CC[C@@]21C (stereo not given in full) | > 100 µM |  | > 100 µM | > 100 µM | > 100 µM | > 100 µM | > 100 µM | > 100 µM |  | > 100 µM | > 100 µM | > 100 µM |
| N#CCc1c(-c2ccccc2)n(S(=O)(=O)c2ccccc2)c2ccccc12 | > 100 µM |  | > 100 µM | > 100 µM | > 100 µM | > 100 µM |  | > 100 µM | > 100 µM | > 100 µM | > 100 µM | > 100 µM |
| CCOC(=O)CC(c1ccccc1)C(C)(C(=O)OCC)C(=O)OCC (stereo not given) | > 100 µM | > 100 µM | > 100 µM | > 100 µM | > 100 µM | > 100 µM | > 100 µM | > 100 µM | > 100 µM | > 100 µM |  | > 100 µM |
| c1cc(-c2ccc(-c3ccc(-c4ccc(-c5ccncc5)o4)cc3)o2)ccn1 |  | 36.4 µM | 25.7 µM | 32.2 µM | 39 µM | 44.6 µM | 45.5 µM | 33.5 µM | 55.6 µM | 30.2 µM |  | 46.7 µM |
| Clc1cccc(-c2sc(-c3ccsc3)cc2Cc2ccsc2)c1 |  | > 10 µM | > 10 µM | > 10 µM | > 10 µM | > 10 µM | > 10 µM | > 10 µM |  | > 10 µM | > 10 µM | > 10 µM |
| O=C(/C=C\c1cccc2ccccc12)c1ccc(F)cc1 | 41.4 µM |  | 74.2 µM | 29.9 µM | 33.2 µM | 26.4 µM | 32.3 µM | 28.4 µM | 33.2 µM | 41.8 µM |  | 35.3 µM |
| CC(=O)OC(CC1(C)C(C)CCC23COC(=O)C2=CCCC31)c1ccoc1 (stereo not given) | 62.5 µM |  | 90.3 µM | 33.9 µM | > 100 µM | 33 µM | 71.8 µM | 54.2 µM | 67.4 µM | 80.3 µM |  |  |
| O=C/C1=C/C2=Cc3ccccc3C=C(/C=C(/C=O)C1)C2 | > 100 µM |  | 90.9 µM | > 100 µM | > 100 µM | > 100 µM | > 100 µM | > 100 µM | > 100 µM | 74.9 µM | > 100 µM | > 100 µM |
| NS(=O)(=O)c1nnc(NC(=O)C23CC4CC(CC(C4)C2)C3)s1 | > 100 µM |  | > 100 µM | > 100 µM | > 100 µM | > 100 µM | > 100 µM | > 100 µM | > 100 µM |  | > 100 µM | > 100 µM |
| CC(=O)OCC1OC(n2ccc(=O)[nH]c2=O)C(OC(C)=O)C(OC(C)=O)C1OC(C)=O (stereo not given) |  |  |  | > 100 µM | > 100 µM | > 100 µM | > 100 µM | > 100 µM | > 100 µM | > 100 µM | > 100 µM | > 100 µM |
| CNC(=O)NCNC(=O)NC | > 100 µM |  | > 100 µM | > 100 µM | > 100 µM | > 100 µM |  | > 100 µM | > 100 µM | > 100 µM | > 100 µM | > 100 µM |
| CCc1c2c(cc3c1CC1(C3)Cc3cc4c(c(C(=O)OC)c3C1)CCCC4)CCCC2 (stereo not given) | > 100 µM | > 100 µM | > 100 µM | > 100 µM | > 100 µM |  | > 100 µM | > 100 µM | > 100 µM | > 100 µM | > 100 µM |  |
| COc1cccc(C23CCCC(C2)NCC3Br)c1OC (stereo not given) |  | > 100 µM | > 100 µM | > 100 µM | > 100 µM | > 100 µM | > 100 µM | > 100 µM | > 100 µM | 99.3 µM | 45.7 µM | > 100 µM |
